Entries after “also recorded” stand apart in the source; their conditions may differ.

In one assay the test system is MRC-5 cell. Kind of assay: RT-qPCR detection of nucleic acid delivered by lipid into MRC-5 cells. It is filed as cell-based. On the procedure: (§1) 3.1 NCI-N87 cell (gastric cancer cell), MRC-5 cell (lung fibroblast), A549 cell (lung cancer cell) were cultured to logarithmic growth phase, and then plated to a six-well plate at cell density of 1×10^6/2 mL medium/well; MRC-5 cell was cultured in Eagle's MEM medium (MEM, Gibco); A549 cell was cultured in Ham's F-12 medium (HyClone); NCI-N87 cell was cultured in RPMI-1640 medium (HyClone); followed by incubation overnight at 37° C., and the follow-up experiments were performed after the cells were attached to the walls.
(§2) 3.3 After co-incubation with the small RNA for 3 hours, the cells were washed 2-3 times with PBS. The cells were harvested with TRIzol lysis buffer, and the total RNA was extracted. The abundance of small RNA that entered cells was detected by RT-qPCR, and the localization of RNA was detected by fluorescence in situ hybridization; protocols of each detection method were as follows:
(§3) 3.3.2 RT-qPCR Detection of Small RNA (SYBR Green Dye Method)
The stem-loop primer used in the reverse transcription process was synthesized by Beijing Tsingke Biotechnology Co., Ltd. (U6 RT primer: […] ATG (SEQ ID NO: 21); HJT-sRNA-m7 RT stem-loop primer: […] AA (SEQ ID NO: 22)).
Both the forward and reverse primers of the amplification reaction were designed and synthesized by Beijing Tsingke Biotechnology Co., Ltd. (U6 F Primer: […] (SEQ ID NO: 23), U6 R Primer: […] (SEQ ID NO: 24), HJT-sRNA-m7 F Primer: […] (SEQ ID NO: 25), HJT-sRNA-m7 R Primer: […] (SEQ ID NO: 26)).
3) The relative expression level was calculated by 2-ΔCt method.
3.1.3 After co-incubation with cells for 12-24 hours, the cells were washed twice with PBS. The cells were harvested with TRIzol lysis buffer (purchased from Sigma-Aldrich), and total RNA was extracted.
On the technique in general: In qPCR the cycle at which signal appears reflects the starting amount.

Another assay concerns A549 cell. Kind of assay: RT-qPCR detection of nucleic acid delivered by lipid into A549 cells. It is filed as cell-based, human. The method, then: as §1
4) Lipid nucleic acid mixture: the mixture of lipid and HJT-sRNA-m7 prepared from the step 2 were added into cells and mixed, and the final concentration of RNA was kept at 200 nM.
as §2
3.3.1 RT-qPCR Detection of Small RNA (Taqman Probe Method)
as §3
Mixtures of soybean PC, lipid No. 11 (18:0/18:2) and lipid No. 12 (16:0/18:2), and various small RNA (see below Table 3) were prepared by the reverse evaporation method and then added into A549 cell line (the final concentration of sRNA was 200 nM); the negative control group (control) was directly added with the same concentration of sRNA; the positive control group (RNAimax) was transfected with Lipofectamine RNAimax (transfection reagent 6 μl/well). The abundance of sRNA in the cells was detected by Taqman probe after 3 hours, and the relative expression level of sRNA was calculated by 2-ΔCt method.
3.1.3 After co-incubation with cells for 12-24 hours, the cells were washed twice with PBS. The cells were harvested with TRIzol lysis buffer (purchased from Sigma-Aldrich), and total RNA was extracted. The abundance of HJT-sRNA-m7 that entered the cells was detected by RT-qPCR; the protocols were as follows:
4368813) was used to reverse transcribe sRNA to cDNA by stem-loop method (see, e.g. Real-time quantification of microRNAs by stem-loop RT-PCR, Nucleic Acids Res. 2005 Nov. 27; 33(20):e179, incorporated by reference herein).

Assay [1] deals with A549 cells. Kind of assay: Digital PCR (ddPCR) detection of the efficiency of nucleic acid delivery by lipid. It is filed as cell-based, human. On the procedure: 2.2 Experimental method: the total cellular RNA was collected and extracted by TRIzol lysis buffer according to the above methods, and reverse transcribed to cDNA using High capacity cRNA Reverse Transcription Kit, and the cDNA from different groups was subject to digital PCR reaction. Refering to the QX200 Droplet Reader and QuantaSoft Software manual for the protocols, the results were analyzed using QuantaSoft software.
2.2 Experimental method: total RNA was collected and extracted by TRIzol lysis buffer according to the above method, and reverse transcribed to cDNA using High capacity cRNA Reverse Transcription Kit, and the cDNA from different groups was subjected to digital PCR reaction. Refer to the QX200 Droplet Reader and QuantaSoft Software manual for the protocols; the results were analyzed using QuantaSoft software.
2.2 Experimental method: Total RNA was collected and extracted by TRIzol lysis buffer according to the above method, and reverse transcribed to cDNA using TaqMan™ MicroRNA Reverse Transcription KitHigh, and the cDNA from different groups was subjected to digital PCR reaction. Refer to the QX200 Droplet Reader and QuantaSoft Software manual for the protocols; the results were analyzed using QuantaSoft software.
2.2 Experimental method: Total RNA was collected and extracted by TRIzol lysis buffer according to the above method, and reversed to cDNA using High capacity cRNA Reverse Transcription Kit, and the cDNA from different groups was subjected to digital PCR reaction. Refer to the QX200 Droplet Reader and QuantaSoft Software manual for the protocols; the results were analyzed using QuantaSoft software.

Assay [2] concerns A549 cells. Kind of assay: Flow cytometry detection of the efficiency of nucleic acid delivery by lipid. The settings on record: boiling method. It is filed as cell-based, human. The method, then: Experimental materials: A549 cells (purchased from the Cell Center of the Chinese Academy of Medical Sciences), FAM-sRNA (purchased from Ribobio Biotechnology Co., Ltd.), lipid No. 41, Accuri® C6 instrument (purchased from BD, USA).
Experimental methods: PGY-sRNA-6-FAM was dissolved in 100 μl water, mixed with 4 μl lipid, and prepared by boiling method. Then the mixture was dropped into A549 cells, and after 6 hours of co-incubation, the samples were collected for detection as follows: firstly wash three times with PBS, then digest with trypsin for 3 minutes and remove trypsin, wash with PBS again and then blow down the cells. The detection was performed using Accuri® C6 instrument.
Experimental Method: PGY-sRNA-6-FAM was dissolved in 100 μl water, and mixed with 4 μl lipid, and prepared into lipid-sRNA mixture by boiling method. Then, the mixture was dropped into A549 cells, and after 6 hours of co-incubation, the samples were collected and washed three times with PBS, then digested with trypsin into single cells, washed with re-suspended with PBS and then blown down for Accuri® C6 instrument detection.
Experimental Method: FAM-sRNA was dissolved in 100 μl water, and mixed with 4 μl lipid, prepared by boiling method. Then, the lipid-sRNA mixture was dropped into A549 cells, and after 6 hours of co-incubation, the samples were collected and washed three times with PBS, then digested into single cells with trypsin, re-suspended with PBS and then blown down for Accuri® C6 instrument detection.
A general note: Flow cytometry measures light scatter and fluorescence of single cells or particles in a stream.

Assay [3] concerns A549 cells. Kind of assay: Confocal fluorescence microscopy of nucleic acid delivered by lipid in cells. It is filed as cell-based, human. The conditions noted are these: 4 μl lipid, boiling method; 6 hours of co-incubation. The method, then:
Experimental materials: A549 cells (purchased from the Cell Center of the Chinese Academy of Medical Sciences), PGY-sRNA-6-Cy3 (purchased from Ribobio Biotechnology Co., Ltd.), lipid No. 41, Zeiss LSM780 (purchased from Zeiss, Germany), Alexa Fluor® 488 phalloidin (purchased from Invitrogen, USA), DAPI (purchased from Invitrogen, USA), paraformaldehyde (purchased from sigma, USA).
Experimental methods: PGY-sRNA-6-FAM was dissolved in 100 μl water, mixed with 4 μl lipid, and prepared by the boiling method. Then the mixture was dropped into A549 cells, and after 6 hours of co-incubation, the samples were washed three times with PBS, fixed with 4% paraformaldehyde, washed three times with PBS, stained with Alexa Fluor® 488 phalloidin for 30 min, washed 3 times with PBS, and stained with DAPI for 5 min, washed with PBS, and then sealed.
Experimental method: PGY-sRNA-6-FAM was dissolved in 100 μl water, and mixed with 4 μl lipid, and prepared by boiling method. Then, the mixture was dropped into A549 cells, and after 6 hours of co-incubation, the samples were washed three times with PBS, fixed with 4% paraformaldehyde, washed three times with PBS, stained with Alexa Fluor® 488 phalloidin for 30 min, washed 3 times with PBS, and stained with DAPI for 5 min, PBS washed, and then sealed.

A short description of assay [4]: In vivo delivery of single-stranded sRNA by single lipid via gavage (blood, stomach, small intestine, liver). Set-up: species or system C57 mice. The settings on record: 10 μl lipid, 1 nmol each sRNA (PGY-sRNA-23/-26/-32), heating method, 6 hours or 12 hours after administration. From the text: Tissues sampled: live/stomach/small intestine.
Setting [5] is: boiling (heating) method, RNA 100 nM, 12 hours (No. 37: 3 hours).
Where [6] appears, read: boiling (heating) method, RNA 100 nM, 2.5 μL single lipid, 12 hours.
Setting [7] is: reverse evaporation method, 6 hours (No. 39: 6 hours, 12 hours).

Regarding `CCCCCC/C=C\CCCCCCCC(=O)O[C@H](COC(=O)CCCCCCCCCCCCCCC)COP(=O)(O)OCCN` [No. 38, (2-aminoethoxy)[(2R)-2-[(9Z)-hexadec-9-enoyloxy]-3-(hexadecanoyloxy)propoxy]phosphinic acid], the “amount of HJT-sRNA-m7 that entered the cells (RT-qPCR)” value in the assay on MRC-5 cell (Example 2-1, FIG. 33, double-stranded 100 nM, boiling method 100° C. 30 min, 24 hours) is on record as “effectively delivered nucleic acids into MRC-5 cells, showing an effect close to the transfection reagent RNAiMAX”. Besides, the “delivery of double-stranded HJT-sRNA-m7 by single lipid (real-time PCR)” value is “delivered double-stranded RNA into A549 and MRC-5 cells; also recorded: about twice that of RNAiMAX” in the assay with MRC-5 cell (boiling (heating) method, RNA 100 nM); “delivered double-stranded RNA into A549 and MRC-5 cells” in the assay on A549 cell (setting [6]). The “delivery of single-stranded HJT-sRNA-m7 by single lipid (real-time PCR)” value with MRC-5 cell (setting [5]) and in the assay on A549 cell (setting [5]) was “the efficiency of delivery was much higher than that of RNAiMAX” throughout. The “delivery of HJT-sRNA-m7 dsRNA (ddPCR)” value in the assay on A549 cells [1] (boiling method, 6 hours) is listed as “could effectively deliver HJT-sRNA-m7 dsRNA into A549 cells”; in the assay on A549 cells [1] (setting [7]), “could effectively deliver HJT-sRNA-m7 dsRNA into A549 cells”. The “efficiency in delivering PGY-sRNA-6 single-stranded RNA (flow cytometry)” value with A549 cells [2] (PGY-sRNA-6-FAM, 4 μl lipid, 6 hours of co-incubation) is listed as 72.5%. Moreover, the “efficiency of nucleic acid delivery by flow cytometry, in words” value with A549 cells [2] (PGY-sRNA-6-FAM, 6 hours) is given as “close to that of the positive control RNAiMAX”. The “entry of PGY-sRNA-6-Cy3 observed under the confocal microscopy” value in the assay on A549 cells [3] is recorded as “could effectively deliver double-stranded nucleic acid into A549 cells”. Also, the “entry of single-stranded small RNA into mouse blood (RT-qPCR)” value in assay [4] was “could effectively deliver sRNA single-stranded nucleic acid into mouse blood via oral administration; also recorded: the delivery effect was better than POPC and Lipofectamine RNAiMAX”.

In the case of `CCCCCC/C=C\CCCCCCCCCC(=O)O[C@H](COC(=O)CCCCCCC/C=C\CCCCCC)COP(=O)(O)OCCN` [No. 39, (2-aminoethoxy)[(2R)-3-[(9Z)-hexadec-9-enoyloxy]-2-[(11Z)-octadec-11-enoyloxy]propoxy] phosphinic acid], the “delivery of HJT-sRNA-m7 dsRNA (ddPCR)” value in the assay on A549 cells [1] (setting [7]) is on record as “could effectively deliver HJT-sRNA-m7 dsRNA into A549 cells”.

Turning to `CCCCCCCC/C=C\CCCCCCCCCCCCCC(=O)O[C@H](COC(=O)CCCCCCCCCCCCCC)COP(=O)(O)OCCN` [No. 64, 1-pentadecanoyl-2-nervonoyl-sn-glycero-3-phosphoethanolamine], the “delivery of double-stranded HJT-sRNA-m7 by single lipid (real-time PCR)” value in the assay on A549 cell (setting [6]) is “delivered HJT-sRNA-m7 double-stranded RNA into A549 cells”; in the assay with A549 cell (reverse evaporation method, RNA 100 nM, 12 hours), “delivered HJT-sRNA-m7 double-stranded RNA into A549 cells”. The “delivery effect relative to RNAiMAX (real-time PCR)” value in the assay on A549 cell (double-stranded HJT-sRNA-m7 100 nM, boiling method, 12 hours, FIG. 96) is “about 3 times that of RNAiMAX”. Moreover, the “efficiency of delivering PGY-sRNA-6 single-stranded RNA relative to RNAiMAX (flow cytometry)” value in the assay on A549 cells [2] (6 hours, FIG. 97) was “½”. In addition, the “entry of PGY-sRNA-6-Cy3 observed under the confocal microscopy” value in the assay on A549 cells [3] is given as “could effectively deliver single-stranded RNA into A549 cells”. Besides, the “entry of single-stranded small RNA into mouse blood (RT-qPCR)” value in assay [4] is “could effectively deliver sRNA single-stranded nucleic acid into mouse blood via oral administration; also recorded: the delivery effect was better than POPC and Lipofectamine RNAiMAX”.

For the origin of these results see patent US20210108198A1, “APPLICATION OF COMPOUND OR TRADITIONAL CHINESE MEDICINE EXTRACT IN PREPARATION OF NUCLEIC ACID DELIVERY AGENT AND RELATED PRODUCTS THEREOF” (INSTITUTE OF BASIC MEDICAL SCIENCES CHINESE ACADEMY OF …, priority 2017, published 2021).
